The target in the assay is PD-1/PD-L1 (Homo sapiens, UniProt Q9NZQ7). The assay is described as follows: PD-1/PD-L1 biochemical protein-protein interaction assay (ALPHA). It is filed as binding. As to conditions: 5 nM His tagged PD-L1, 5 nM biotinylated PD-1, 2 hours at 25° C.; read-out: ALPHA-LISA IC50. How it is done: Compounds were tested in protein-protein interaction assay to determine if they can specifically block the interaction between the extracellular domains of PD-1/PD-L1. Binding of the protein pairs is measured using a bead based amplified luminescent proximity homogeneous assay (ALPHA) platform. Binding of each protein pair results in proximity of the donor and acceptor beads which leads to an increase in ALPHA signal. Assays are performed in 50 mM Tris (pH 7.4), 0.0015% Triton X-100, 0.1% BSA. Final protein concentration in the assays were 5 nM (His tagged PD-L1), 5 nM (biotinylated PD-1), 10 μg/ml ALPHA assay acceptor beads, 10 μg/ml ALPHA assay donor beads. After an assay reaction time of 2 hours at 25° C., binding was measured. The specificity of the binding was determined by testing the compounds in an assay with an irrelevant protein that is both His tagged and biotinylated. The final protein concentration used in the assay was 5 nM, 10 μg/ml ALPHA assay acceptor beads, 10 μg/ml ALPHA assay donor beads. After an assay reaction time of 2 hours at 25° C., binding was measured. IC50 values were calculated from the fit of the dose-response curves to a four-parameter equation.
PD-1/PD-L1, sequence (Q9NZQ7 19-238 limits assumed): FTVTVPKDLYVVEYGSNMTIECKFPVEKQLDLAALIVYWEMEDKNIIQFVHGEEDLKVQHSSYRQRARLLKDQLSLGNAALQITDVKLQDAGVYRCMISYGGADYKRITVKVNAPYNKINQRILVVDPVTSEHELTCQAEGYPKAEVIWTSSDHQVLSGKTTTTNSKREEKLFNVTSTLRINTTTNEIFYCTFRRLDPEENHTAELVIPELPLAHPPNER
The specificity of the binding was determined by testing the compounds in an assay with an irrelevant protein that is both His tagged and biotinylated (ErbB3/her3). The final protein concentration used in the assay was 5 nM, 10 μg/mL ALPHA assay acceptor beads, 10 μg/mL ALPHA assay donor beads. After an assay reaction time of 2 hours at 25° C., binding was measured. IC50 values were calculated from the fit of the dose-response curves to a four-parameter equation.
For orientation: Alpha assays give light when donor and acceptor beads are brought close together.
A word on the IC50: it is the point on the concentration scale where inhibition reaches its midpoint. With `CC(C)c1cc(CN[C@H](CO)C(=O)O)c(OCc2cccc(C#N)c2)cc1OCc1cccn(-c2ccc3c(c2)OCCO3)c1=O` [Compound 204], the IC50 amounted to 3600 nM.
In the case of `N#Cc1cccc(COc2cc(OCc3cccn(-c4ccc5c(c4)OCCO5)c3=O)c(Cl)cc2CN[C@H](CO)C(=O)O)c1` [Compound 202, (5-chloro-2-((3-cyanobenzyl)oxy)-4-((1-(2,3-dihydrobenzo[b][1,4]dioxin-6-yl)-2-oxo-1,2-dihydropyridin-3-yl)methoxy)benzyl)-D-serine] it was 300 nM; in that of `N#Cc1cncc(COc2cc(OCc3cccn(-c4ccc5c(c4)OCCO5)c3=O)c(Cl)cc2CN[C@H](CO)C(=O)O)c1` [Compound 207, (5-chloro-2-((5-cyanopyridin-3-yl)methoxy)-4-((1-(2,3-dihydrobenzo[b][1,4]dioxin-6-yl)-2-oxo-1,2-dihydropyridin-3-yl)methoxy)benzyl)-D-serine], 320 nM.
In the case of `Cc1cc(CN[C@H](CO)C(=O)O)c(OCc2cccc(Cl)c2)cc1OCc1cccn(-c2ccc3c(c2)OCCO3)c1=O` [Compound 101, (2-((3-chlorobenzyl)oxy)-4-((1-(2,3-dihydrobenzo[b][1,4]dioxin-6-yl)-2-oxo-1,2-dihydropyridin-3-yl)methoxy)-5-methylbenzyl)-D-serine] it was 3000 nM; in that of `Cc1cc(CN[C@@H](CO)C(=O)O)c(OCc2cccc(C#N)c2)cc1OCc1cccn(-c2ccc3c(c2)OCCO3)c1=O` [Compound 10, (2-((3-cyanobenzyl)oxy)-4-((1-(2,3-dihydrobenzo[b][1,4]dioxin-6-yl)-2-oxo-1,2-dihydropyridin-3-yl)methoxy)-5-methylbenzyl)-L-serine], 1200 nM.
Under `N#Cc1cccc(COc2cc(OCc3cccn(-c4ccc5c(c4)OCCO5)c3=O)c(Cl)cc2CNC[C@@H]2CCC(=O)N2)c1` [Compound 205, (S)-3-((4-chloro-5-((1-(2,3-dihydrobenzo[b][1,4]dioxin-6-yl)-2-oxo-1,2-dihydropyridin-3-yl)methoxy)-2-((((5-oxopyrrolidin-2-yl)methyl)amino)methyl)phenoxy)methyl)benzonitrile] stands 360 nM; under `Cc1cc(CN[C@@H](C)C(=O)O)c(OCc2cccc(C#N)c2)cc1OCc1cccn(-c2ccc3c(c2)OCCO3)c1=O` [Compound 11], 3900 nM; under `Cc1cc(CN[C@H](CO)C(=O)O)c(OCc2cccc(C#N)c2)cc1OCc1cccn(-c2ccc3c(c2)OCCO3)c1=O` [Compound 7, (2-((3-cyanobenzyl)oxy)-4-((1-(2,3-dihydrobenzo[b][1,4]dioxin-6-yl)-2-oxo-1,2-dihydropyridin-3-yl)methoxy)-5-methylbenzyl)-D-serine], 1100 nM.
In the case of `O=C(O)[C@@H](CO)NCc1cc(Cl)c(OCc2cccn(-c3ccc4c(c3)OCCO4)c2=O)cc1OCc1cncc(-n2ccnn2)c1` [Compound 209], the IC50 was 550 nM.
In the case of `Cc1cc(CN(C)[C@@H](CO)C(=O)O)c(OCc2cccc(C#N)c2)cc1OCc1cccn(-c2ccc3c(c2)OCCO3)c1=O` [Compound 12] it was 1600 nM; in that of `Cc1cc(CN[C@H](CO)C(=O)O)c(OCc2cccnc2)cc1OCc1cccn(-c2ccc3c(c2)OCCO3)c1=O` [Compound 103, (4-((1-(2,3-dihydrobenzo[b][1,4]dioxin-6-yl)-2-oxo-1,2-dihydropyridin-3-yl)methoxy)-5-methyl-2-(pyridin-3-ylmethoxy)benzyl)-D-serine], 1000 nM; in that of `Cc1cc(CN2C[C@H](O)C[C@@H]2C(=O)O)c(OCc2cccc(C#N)c2)cc1OCc1cccn(-c2ccc3c(c2)OCCO3)c1=O` [Compound 8, (2R,4R)-1-(2-((3-cyanobenzyl)oxy)-4-((1-(2,3-dihydrobenzo[b][1,4]dioxin-6-yl)-2-oxo-1,2-dihydropyridin-3-yl)methoxy)-5-methylbenzyl)-4-hydroxypyrrolidine-2-carboxylic acid], 3400 nM.
Take `CCc1cc(CN[C@H](CO)C(=O)O)c(OCc2cccc(C#N)c2)cc1OCc1cccn(-c2ccc3c(c2)OCCO3)c1=O` [Compound 203]: the IC50 is 2700 nM.
In the case of `Cc1cc(CN[C@](C)(CO)C(=O)O)c(OCc2cccc(C#N)c2)cc1OCc1cccn(-c2ccc3c(c2)OCCO3)c1=O` [Compound 9, (R)-2-((2-((3-cyanobenzyl)oxy)-4-((1-(2,3-dihydrobenzo[b][1,4]dioxin-6-yl)-2-oxo-1,2-dihydropyridin-3-yl)methoxy)-5-methylbenzyl)amino)-3-hydroxy-2-methylpropanoic acid] it was 1200 nM.

Values taken from patent publication US20220233684A1, “COMBINATION OF HEPATITIS B VIRUS (HBV) VACCINES AND PD-L1 INHIBITORS” (Janssen Sciences Ireland Unlimited Company, priority 2019, published 2022).
